Earlier results, collected in patent US20190030061A1, “COBALAMIN COMPOSITIONS AND USE THEREOF FOR IMPROVING COGNITIVE FUNCTION” (NOVA SOUTHEASTERN UNIVERSITY, priority 2016, published 2019).

Tested on: neuronal cells

Substance: Amyloid Beta
- GSH levels: decrease
- cysteine uptake: decrease

Substance: IGF1: insulin-like growth factor 1
- GSH levels: increased
- cysteine uptake: stimulates
